Source: ChEMBL document CHEMBL4800732, “Data for DCP probe TP-040” (2021)

Columns and labels:
[1] = molecular target: 5-hydroxytryptamine receptor 1A (Homo sapiens) (UniProt P08908); conditions: Compound concentration 10.0 uM
Histamine H3 receptor = Histamine H3 receptor (Homo sapiens, UniProt Q9Y5N1); conditions: Compound concentration 10.0 uM
[2] = molecular target: D(4) dopamine receptor (Homo sapiens) (UniProt P21917); conditions: Compound concentration 10.0 uM
[3] = molecular target: Beta-2 adrenergic receptor (Homo sapiens) (UniProt P07550); conditions: Compound concentration 10.0 uM
[4] = molecular target: Alpha-1B adrenergic receptor (Homo sapiens) (UniProt P35368); conditions: Compound concentration 10.0 uM
[5] = molecular target: T1, Alpha-2B adrenergic receptor (Homo sapiens, UniProt P18089); experiment: GPCRScan assay: inhibition of Alpha2B; design: radioligand conc. used [nm] 1.5 – 2.0, parental cells HEKT
T1 sequence (P18089 whole entry): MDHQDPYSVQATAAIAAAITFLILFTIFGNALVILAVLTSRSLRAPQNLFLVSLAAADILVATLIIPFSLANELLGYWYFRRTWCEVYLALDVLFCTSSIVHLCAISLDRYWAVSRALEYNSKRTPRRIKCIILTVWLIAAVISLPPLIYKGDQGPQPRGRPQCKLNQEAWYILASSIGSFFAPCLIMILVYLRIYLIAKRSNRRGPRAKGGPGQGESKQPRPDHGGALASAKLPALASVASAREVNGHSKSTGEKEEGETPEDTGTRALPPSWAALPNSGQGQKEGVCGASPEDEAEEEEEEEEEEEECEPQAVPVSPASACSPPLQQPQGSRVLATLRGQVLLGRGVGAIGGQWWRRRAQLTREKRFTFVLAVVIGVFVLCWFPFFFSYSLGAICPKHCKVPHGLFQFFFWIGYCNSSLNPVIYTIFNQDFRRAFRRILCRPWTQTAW

[6] = molecular target: 5-hydroxytryptamine receptor 2C (Homo sapiens) (UniProt P28335); conditions: Compound concentration 10.0 uM
[7] = molecular target: Muscarinic acetylcholine receptor M3 (Homo sapiens) (UniProt P20309); conditions: Compound concentration 10.0 uM
[8] = molecular target: Beta-1 adrenergic receptor (Homo sapiens) (UniProt P08588); conditions: Compound concentration 10.0 uM
[9] = molecular target: Histamine H1 receptor (Homo sapiens) (UniProt P35367); conditions: Compound concentration 10.0 uM
[10] = molecular target: 5-hydroxytryptamine receptor 6 (Homo sapiens, UniProt P50406); conditions: Compound concentration 10.0 uM
[11] = molecular target: 5-hydroxytryptamine receptor 5A (Homo sapiens, UniProt P47898); conditions: Compound concentration 10.0 uM
[12] = molecular target: 5-hydroxytryptamine receptor 3A (Homo sapiens) (UniProt P46098); conditions: Compound concentration 10.0 uM
[13] = molecular target: T2, 5-hydroxytryptamine receptor 2B (Homo sapiens, UniProt P41595); conditions: Compound concentration 10.0 uM
[14] = molecular target: T3, Sodium-dependent noradrenaline transporter (Homo sapiens, UniProt P23975); experiment: GPCRScan assay: inhibition of NET; design: radioligand conc. used [nm] 1.3 – 5.0, parental cells stable HEK
[15] = molecular target: Sodium-dependent serotonin transporter (Homo sapiens) (UniProt P31645); conditions: Compound concentration 10.0 uM
Histamine H2 receptor = Histamine H2 receptor (Homo sapiens, UniProt P25021); conditions: Compound concentration 10.0 uM
[16] = molecular target: T2, 5-hydroxytryptamine receptor 2B; experiment: GPCRScan assay: inhibition of 5-HT2B; design: radioligand conc. used [nm] 1.0 – 2.0, parental cells stable HEK
[17] = molecular target: Alpha-2B adrenergic receptor (Homo sapiens) (UniProt P18089); conditions: Compound concentration 10.0 uM
[18] = molecular target: 5-hydroxytryptamine receptor 1D (Homo sapiens, UniProt P28221); experiment: GPCRScan assay: inhibition of 5-HT1D; design: radioligand conc. used [nm] 1.0 – 2.0, parental cells HEKT
[19] = molecular target: Sodium-dependent dopamine transporter (Homo sapiens, UniProt Q01959); conditions: Compound concentration 10.0 uM
[20] = molecular target: Delta-type opioid receptor (Homo sapiens) (UniProt P41143); conditions: Compound concentration 10.0 uM
[21] = molecular target: GABA-A receptor; anion channel (Rattus norvegicus) (UniProt O09028+P15431+P18506+P18508+P19969+P20236+P23574+P23576+P28471+P28473+P30191+P62813+P63079+P63138+Q91ZM7+Q9ES14); conditions: Compound concentration 10.0 uM
[22] = molecular target: D(2) dopamine receptor (Homo sapiens) (UniProt P14416); conditions: Compound concentration 10.0 uM
[23] = molecular target: 5-hydroxytryptamine receptor 1B (Homo sapiens) (UniProt P28222); conditions: Compound concentration 10.0 uM
[24] = molecular target: Alpha-1D adrenergic receptor (Homo sapiens) (UniProt P25100); conditions: Compound concentration 10.0 uM
[25] = molecular target: T4, 5-hydroxytryptamine receptor 2C (Homo sapiens, UniProt P28335); experiment: GPCRScan assay: inhibition of 5-HT2C; design: radioligand conc. used [nm] 1.0 – 2.5, parental cells HEK T
T4 sequence (P28335 whole entry): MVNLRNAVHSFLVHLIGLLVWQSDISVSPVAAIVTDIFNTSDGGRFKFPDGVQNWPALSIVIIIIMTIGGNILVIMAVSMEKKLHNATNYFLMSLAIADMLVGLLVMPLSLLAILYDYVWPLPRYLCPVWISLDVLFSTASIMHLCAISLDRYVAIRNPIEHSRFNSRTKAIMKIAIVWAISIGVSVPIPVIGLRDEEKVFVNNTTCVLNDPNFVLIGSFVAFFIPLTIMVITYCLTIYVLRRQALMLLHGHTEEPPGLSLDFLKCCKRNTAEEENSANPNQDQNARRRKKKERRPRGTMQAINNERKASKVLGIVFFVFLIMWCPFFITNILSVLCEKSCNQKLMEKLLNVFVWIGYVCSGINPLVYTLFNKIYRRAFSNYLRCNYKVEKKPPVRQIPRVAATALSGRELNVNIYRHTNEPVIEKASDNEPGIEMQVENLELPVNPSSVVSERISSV

[26] = molecular target: T3, Sodium-dependent noradrenaline transporter; conditions: Compound concentration 10.0 uM
[27] = molecular target: Mu-type opioid receptor (Homo sapiens) (UniProt P35372); conditions: Compound concentration 10.0 uM

T2 sequence (P41595 whole entry): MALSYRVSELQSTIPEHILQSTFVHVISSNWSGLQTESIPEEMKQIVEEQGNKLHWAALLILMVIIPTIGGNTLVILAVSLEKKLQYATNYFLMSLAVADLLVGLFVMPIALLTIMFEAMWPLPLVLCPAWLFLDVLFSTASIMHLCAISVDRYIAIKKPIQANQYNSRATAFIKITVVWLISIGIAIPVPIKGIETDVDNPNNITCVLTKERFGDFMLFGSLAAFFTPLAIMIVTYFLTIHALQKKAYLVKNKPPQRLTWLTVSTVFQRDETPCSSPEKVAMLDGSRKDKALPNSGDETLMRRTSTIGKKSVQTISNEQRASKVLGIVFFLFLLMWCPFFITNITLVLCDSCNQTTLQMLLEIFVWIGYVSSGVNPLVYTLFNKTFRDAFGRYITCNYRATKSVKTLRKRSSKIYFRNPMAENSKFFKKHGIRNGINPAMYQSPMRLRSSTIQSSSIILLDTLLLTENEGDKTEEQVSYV
T3 sequence (P23975 whole entry): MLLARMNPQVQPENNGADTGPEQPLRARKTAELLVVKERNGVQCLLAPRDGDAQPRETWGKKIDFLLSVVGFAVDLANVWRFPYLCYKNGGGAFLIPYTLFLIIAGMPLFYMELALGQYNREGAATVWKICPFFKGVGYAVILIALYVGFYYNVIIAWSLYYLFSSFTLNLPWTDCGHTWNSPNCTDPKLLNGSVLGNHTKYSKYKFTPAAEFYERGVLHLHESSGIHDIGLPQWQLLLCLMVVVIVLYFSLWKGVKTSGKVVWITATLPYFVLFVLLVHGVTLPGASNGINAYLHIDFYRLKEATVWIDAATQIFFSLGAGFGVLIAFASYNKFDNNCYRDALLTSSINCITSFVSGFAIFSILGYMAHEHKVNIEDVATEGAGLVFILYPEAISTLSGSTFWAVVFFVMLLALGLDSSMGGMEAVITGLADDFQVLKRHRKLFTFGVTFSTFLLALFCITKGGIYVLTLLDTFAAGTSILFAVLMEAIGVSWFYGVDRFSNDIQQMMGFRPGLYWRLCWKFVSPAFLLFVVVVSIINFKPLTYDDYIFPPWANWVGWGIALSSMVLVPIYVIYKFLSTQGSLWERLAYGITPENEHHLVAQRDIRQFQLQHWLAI
5-hydroxytryptamine receptor 1D, sequence (P28221 whole entry): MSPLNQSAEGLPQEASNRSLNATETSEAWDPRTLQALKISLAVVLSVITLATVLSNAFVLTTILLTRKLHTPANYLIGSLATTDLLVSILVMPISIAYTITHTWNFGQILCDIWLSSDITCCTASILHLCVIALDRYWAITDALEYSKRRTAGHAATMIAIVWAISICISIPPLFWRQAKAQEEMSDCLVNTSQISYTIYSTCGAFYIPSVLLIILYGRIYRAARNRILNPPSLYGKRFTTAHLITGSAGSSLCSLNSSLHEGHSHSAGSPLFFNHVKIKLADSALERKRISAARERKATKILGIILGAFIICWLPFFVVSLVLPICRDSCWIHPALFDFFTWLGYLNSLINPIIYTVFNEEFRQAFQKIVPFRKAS
Delta-type opioid receptor (Homo sapiens), sequence (P41143 whole entry): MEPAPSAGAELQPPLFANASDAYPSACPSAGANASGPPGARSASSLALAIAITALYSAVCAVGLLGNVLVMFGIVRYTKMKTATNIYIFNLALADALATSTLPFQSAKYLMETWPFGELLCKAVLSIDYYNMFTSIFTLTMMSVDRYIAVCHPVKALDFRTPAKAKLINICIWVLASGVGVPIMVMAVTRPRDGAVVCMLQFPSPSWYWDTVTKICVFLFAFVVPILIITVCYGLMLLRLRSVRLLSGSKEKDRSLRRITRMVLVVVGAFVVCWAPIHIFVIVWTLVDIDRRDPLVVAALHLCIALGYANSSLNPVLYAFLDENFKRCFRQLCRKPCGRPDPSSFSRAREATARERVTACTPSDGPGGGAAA
Histamine H2 receptor, sequence (P25021 whole entry): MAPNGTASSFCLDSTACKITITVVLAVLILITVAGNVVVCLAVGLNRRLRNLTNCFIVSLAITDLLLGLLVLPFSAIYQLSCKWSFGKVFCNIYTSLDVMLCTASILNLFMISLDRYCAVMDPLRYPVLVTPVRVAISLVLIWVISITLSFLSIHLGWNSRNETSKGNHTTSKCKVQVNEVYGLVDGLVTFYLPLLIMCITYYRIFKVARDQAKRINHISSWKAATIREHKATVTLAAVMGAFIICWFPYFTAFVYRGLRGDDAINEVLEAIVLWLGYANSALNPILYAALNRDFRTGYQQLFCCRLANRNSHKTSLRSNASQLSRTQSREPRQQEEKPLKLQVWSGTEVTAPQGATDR
Alpha-1D adrenergic receptor (Homo sapiens), sequence (P25100 whole entry): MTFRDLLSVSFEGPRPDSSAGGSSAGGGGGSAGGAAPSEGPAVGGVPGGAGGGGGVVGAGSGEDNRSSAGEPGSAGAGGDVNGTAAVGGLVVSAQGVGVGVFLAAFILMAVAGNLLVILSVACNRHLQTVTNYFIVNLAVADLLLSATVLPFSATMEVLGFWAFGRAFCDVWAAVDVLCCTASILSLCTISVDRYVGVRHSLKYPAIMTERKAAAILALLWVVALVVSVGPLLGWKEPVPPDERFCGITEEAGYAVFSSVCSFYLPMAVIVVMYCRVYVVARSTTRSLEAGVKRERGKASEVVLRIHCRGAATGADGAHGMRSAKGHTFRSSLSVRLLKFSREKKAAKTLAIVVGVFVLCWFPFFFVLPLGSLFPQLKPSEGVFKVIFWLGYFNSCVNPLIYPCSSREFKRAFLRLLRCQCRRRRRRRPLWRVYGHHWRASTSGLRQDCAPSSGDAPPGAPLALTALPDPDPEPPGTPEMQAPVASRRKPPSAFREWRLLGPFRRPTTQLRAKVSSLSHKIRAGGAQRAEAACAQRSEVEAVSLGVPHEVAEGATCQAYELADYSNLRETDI
5-hydroxytryptamine receptor 1A (Homo sapiens), sequence (P08908 whole entry): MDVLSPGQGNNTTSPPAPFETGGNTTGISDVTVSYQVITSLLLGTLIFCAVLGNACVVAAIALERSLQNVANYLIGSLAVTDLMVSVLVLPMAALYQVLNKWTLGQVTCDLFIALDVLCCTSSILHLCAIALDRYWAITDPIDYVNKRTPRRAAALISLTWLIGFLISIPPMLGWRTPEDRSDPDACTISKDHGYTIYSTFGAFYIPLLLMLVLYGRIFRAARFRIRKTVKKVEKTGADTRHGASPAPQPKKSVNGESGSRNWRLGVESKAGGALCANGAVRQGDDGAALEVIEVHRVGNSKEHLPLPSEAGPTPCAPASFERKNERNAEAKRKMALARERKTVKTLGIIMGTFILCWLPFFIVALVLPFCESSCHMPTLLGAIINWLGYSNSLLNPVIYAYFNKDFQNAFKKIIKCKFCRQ
D(4) dopamine receptor (Homo sapiens), sequence (P21917 whole entry): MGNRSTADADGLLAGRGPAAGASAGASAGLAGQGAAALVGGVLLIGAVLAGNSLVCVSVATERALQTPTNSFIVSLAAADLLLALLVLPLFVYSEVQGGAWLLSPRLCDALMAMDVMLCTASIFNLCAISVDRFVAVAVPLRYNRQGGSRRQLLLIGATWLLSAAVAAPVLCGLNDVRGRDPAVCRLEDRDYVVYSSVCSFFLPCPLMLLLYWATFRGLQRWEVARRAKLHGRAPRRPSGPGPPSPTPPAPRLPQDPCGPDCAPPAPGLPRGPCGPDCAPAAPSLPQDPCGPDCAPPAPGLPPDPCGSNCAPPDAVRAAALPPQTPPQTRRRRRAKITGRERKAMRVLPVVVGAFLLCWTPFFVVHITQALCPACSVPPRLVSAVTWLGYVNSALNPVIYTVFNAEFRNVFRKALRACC
5-hydroxytryptamine receptor 1B (Homo sapiens), sequence (P28222 whole entry): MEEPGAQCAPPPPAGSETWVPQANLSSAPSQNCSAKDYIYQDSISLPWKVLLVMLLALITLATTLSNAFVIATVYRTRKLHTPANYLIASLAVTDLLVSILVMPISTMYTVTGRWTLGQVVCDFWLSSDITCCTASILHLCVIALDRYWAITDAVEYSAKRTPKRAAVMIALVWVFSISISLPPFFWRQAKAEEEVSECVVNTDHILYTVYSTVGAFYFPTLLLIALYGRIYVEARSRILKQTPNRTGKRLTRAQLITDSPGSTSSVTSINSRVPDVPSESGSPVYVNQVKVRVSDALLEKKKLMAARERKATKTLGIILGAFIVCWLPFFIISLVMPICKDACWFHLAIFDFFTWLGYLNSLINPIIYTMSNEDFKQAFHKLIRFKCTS
Muscarinic acetylcholine receptor M3 (Homo sapiens), sequence (P20309 whole entry, looked up): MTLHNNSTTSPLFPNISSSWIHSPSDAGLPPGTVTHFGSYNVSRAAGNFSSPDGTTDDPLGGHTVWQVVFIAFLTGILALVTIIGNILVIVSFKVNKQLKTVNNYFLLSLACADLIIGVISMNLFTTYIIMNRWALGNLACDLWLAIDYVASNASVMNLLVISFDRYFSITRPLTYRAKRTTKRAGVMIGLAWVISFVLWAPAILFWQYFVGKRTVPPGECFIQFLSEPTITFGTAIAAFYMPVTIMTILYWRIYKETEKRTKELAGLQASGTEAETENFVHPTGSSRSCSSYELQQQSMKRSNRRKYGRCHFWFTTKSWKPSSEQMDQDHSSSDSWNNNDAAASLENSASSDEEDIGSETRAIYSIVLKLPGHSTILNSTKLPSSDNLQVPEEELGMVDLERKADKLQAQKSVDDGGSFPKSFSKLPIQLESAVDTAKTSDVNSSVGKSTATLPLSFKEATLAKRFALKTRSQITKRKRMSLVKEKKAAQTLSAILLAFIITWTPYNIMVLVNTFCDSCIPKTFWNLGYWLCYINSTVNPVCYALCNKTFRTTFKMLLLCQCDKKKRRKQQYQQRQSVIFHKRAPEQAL
5-hydroxytryptamine receptor 5A, sequence (P47898 whole entry): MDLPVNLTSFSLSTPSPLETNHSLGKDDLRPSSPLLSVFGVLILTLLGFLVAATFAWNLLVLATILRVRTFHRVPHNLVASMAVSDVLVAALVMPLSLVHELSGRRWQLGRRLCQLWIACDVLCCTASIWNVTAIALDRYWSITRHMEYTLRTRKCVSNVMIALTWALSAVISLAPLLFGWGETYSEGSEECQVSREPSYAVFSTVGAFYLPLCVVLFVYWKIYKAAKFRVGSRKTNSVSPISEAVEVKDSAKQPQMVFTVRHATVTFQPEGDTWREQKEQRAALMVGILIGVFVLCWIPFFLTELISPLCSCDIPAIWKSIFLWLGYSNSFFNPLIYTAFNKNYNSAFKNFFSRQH

## CN1CCN(c2ccnc(NCCc3ccccc3)n2)CC1 [TP-040n]
[1]
  inhibition: 26.7%
Histamine H3 receptor
  inhibition: 86.2%
[2]
  inhibition: 13%
[3]
  inhibition: -3.49%
[4]
  inhibition: 22.1%
[5]; read-out: Ki
  Ki: 475 nM
[5]; read-out: pKi (converted)
  Ki: 427 nM
[6]
  inhibition: 94.8%
[7]
  inhibition: -3.28%
[8]
  inhibition: 6.05%
[9]
  inhibition: 41.6%
[10]
  inhibition: 80.4%
[11]
  inhibition: 59.8%
[12]
  inhibition: 22.4%
[13]
  inhibition: 91.7%
[14]; read-out: Ki
  Ki: 3110 nM
[14]; read-out: pKi (converted)
  Ki: 3020 nM
[15]
  inhibition: 35.8%
Histamine H2 receptor
  inhibition: 95.6%
[16]; read-out: Ki
  Ki: 291 nM
[16]; read-out: pKi (converted)
  Ki: 282 nM
[17]
  inhibition: 98%
[18]; read-out: Ki
  Ki: 2040 nM
[18]; read-out: pKi (converted)
  Ki: 1820 nM
[19]
  inhibition: 98%
[20]
  inhibition: 8.02%
[21]
  inhibition: 22.9%
[22]
  inhibition: 20.6%
[23]
  inhibition: 45.9%
[24]
  inhibition: 26%
[25]; read-out: Ki
  Ki: 267 nM
[25]; read-out: pKi (converted)
  Ki: 257 nM
[26]
  inhibition: 93.8%
[27]
  inhibition: 25.9%

## CC1CCN(c2ccnc(NCc3cn(C)cn3)n2)CC1 [TP-040]
[1]
  inhibition: 30%
Histamine H3 receptor
  inhibition: 35.1%
[2]
  inhibition: 3.89%
[3]
  inhibition: -3.61%
[4]
  inhibition: -5.62%
[5]; read-out: Ki
  Ki: 2570 nM
[6]
  inhibition: 89.2%
[7]
  inhibition: 7.48%
[8]
  inhibition: 3.97%
[9]
  inhibition: 40.1%
[10]
  inhibition: 32.1%
[11]
  inhibition: 24%
[12]
  inhibition: 27.7%
[13]
  inhibition: 81.8%
[14]; read-out: Ki
  Ki: 1940 nM
[14]; read-out: pKi (converted)
  Ki: 1910 nM
[15]
  inhibition: 5.83%
Histamine H2 receptor
  inhibition: 28.6%
[16]; read-out: Ki
  Ki: 699 nM
[17]
  inhibition: 56.3%
[18]; read-out: Ki
  Ki: 417 nM
[18]; read-out: pKi (converted)
  Ki: 631 nM
[19]
  inhibition: 20.6%
[20]
  inhibition: 4.65%
[21]
  inhibition: 67.4%
[22]
  inhibition: 4.96%
[23]
  inhibition: 24.4%
[24]
  inhibition: 25.1%
[25]; read-out: Ki
  Ki: 374 nM
[25]; read-out: pKi (converted)
  Ki: 363 nM
[26]
  inhibition: 75.8%
[27]
  inhibition: 10.8%
